Measured values: paper PMC7154053, “Chemical, Metabolic, and Cellular Characterization of a FtsZ Inhibitor Effective Against Burkholderia cenocepacia” (Frontiers in Microbiology, 2020)
Values after ≈ are worked out from the molar mass of the structure shown. Read-outs that look alike come from different tables or passages of the source.

Tests used:
B. cenocepacia J2315 = test: MIC, 2-fold microdilution, resazurin method; type: cell-based, Burkholderia cenocepacia; settings: for MIC: Burkholderia cenocepacia, J2315
Experimental: (§1) Burkholderia cenocepacia strains, Escherichia coli ATCC 25922, Pseudomonas aeruginosa PAO1, and Staphylococcus aureus ATCC 25923 were grown in Luria-Bertani (LB) medium (Difco), if not differently specified, with shaking at 200 rpm, or on LB agar, at 37°C.
(§2) The microtiter plates were incubated at 37°C for 48 (for B. cenocepacia) or 24 h (for all the other strains) and growth was determined by the resazurin method (Martin et al., [2006]). A solution of resazurin sodium salt (Sigma Aldrich) was prepared at 0.01% in distilled water and filter-sterilized. Thirty microliter of resazurin solution were added to each well after 1 or 2 days of incubation at 37°C, and the microtiters were re-incubated at the same temperature for 4 h. The MIC was defined as the lowest concentration of the drug that prevented a change in color from blue to pink, which indicates bacterial growth.
(§3) Three independent biological replicates were used for each MIC determination.

E. coli ATCC 25922 = test: MIC, 2-fold microdilution, resazurin method; type: cell-based; settings: Escherichia coli, ATCC25922
Experimental: as §1, §2, §3

P. aeruginosa PAO1 = test: MIC, 2-fold microdilution, resazurin method; type: cell-based; settings: Pseudomonas aeruginosa, PAO1
Experimental: as §1, §2, §3

S. aureus ATCC 25923 = test: MIC, 2-fold microdilution, resazurin method; type: cell-based, Staphylococcus aureus; settings: for MIC: Staphylococcus aureus, ATCC25923; for spectrum of activity, in words: S. aureus vs Gram-negative species
Experimental: as §1, §2, §3

[1] = target: Burkholderia cenocepacia purified FtsZ protein (Burkholderia cenocepacia, UniProt B4E5Y7); test: biochemical; type: biochemical; settings: for Inhibition of Bc FtsZ At 100 μM: 100 μM compound; for Inhibition of Bc FtsZ At 100 μM / Inhibits B. cenocepacia FtsZ GTPase at 100µM?: Yes/No; for Inhibits B. cenocepacia FtsZ GTPase at 100µM?: Supplementary Table 1
Chain of Burkholderia cenocepacia purified FtsZ protein (B4E5Y7 entry or part of it): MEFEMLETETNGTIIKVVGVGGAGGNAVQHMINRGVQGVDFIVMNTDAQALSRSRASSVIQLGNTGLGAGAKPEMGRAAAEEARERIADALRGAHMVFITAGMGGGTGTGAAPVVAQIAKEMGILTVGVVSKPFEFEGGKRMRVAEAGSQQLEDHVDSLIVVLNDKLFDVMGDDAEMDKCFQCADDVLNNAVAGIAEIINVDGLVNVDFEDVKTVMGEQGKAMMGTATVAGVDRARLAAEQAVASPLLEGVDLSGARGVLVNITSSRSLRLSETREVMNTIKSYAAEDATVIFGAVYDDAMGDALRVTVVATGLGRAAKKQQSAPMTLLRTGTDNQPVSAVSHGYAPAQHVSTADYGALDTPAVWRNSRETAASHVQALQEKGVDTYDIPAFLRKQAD
Experimental: All the recombinant FtsZ proteins were expressed at 20°C overnight in E. coli BL21(DE3) cells, upon induction with 0.5 mM IPTG, and purified using the same protocol assessed for the wild-type B. cenocepacia FtsZ (Hogan et al., [2018]).
GTPase enzyme activity was determined using a pyruvate kinase/L-lactic dehydrogenase (PK/LDH) spectrophotometric coupled assay (Ingerman and Nunnari, [2005]). The assays were performed at 30°C, in a reaction mixture containing […] Hepes pH 7.5, 5 mM MgCl2, 5 mM KCl, 10 U PK/LDH, 0.25 mM NADH, 0.25 mM PEP, and 5–10 μM FtsZ, and initiated by the addition of 0.5 mM GTP. Alternatively, GTPase activity was determined by measuring the release of phosphate using the malachite green assay (Baykov et al., [1988]).
(1) A[I]=A[0]×(1-[I]/[I]+IC50)
where A[I] is the enzyme activity at inhibitor concentration [I] and A[0] is the enzyme activity without inhibitor.

[2] = LB, 48 h, read-out: MIC B. cenocepacia J2315
[3] = Supplementary Table 1, read-out: MIC (µg/ml) B. cenocepacia J2315
[4] = LB, 24 h, read-out: MIC E. coli 25922
[5] = Supplementary Table 1, read-out: MIC (µg/ml) E. coli 25922
[6] = LB, 24 h, read-out: MIC P. aeruginosa PAO1
[7] = Supplementary Table 1, read-out: MIC (µg/ml) P. aeruginosa PAO1
[8] = LB, 24 h, read-out: MIC S. aureus 25923
[9] = Supplementary Table 1, read-out: MIC (µg/ml) S. aureus 25923

CCOC(=O)CSc1c(C)cc2nsnc2c1[N+](=O)[O-] [compound 11926142]
MIC (B. cenocepacia J2315; [2]): > 256 µg/mL
MIC (B. cenocepacia J2315; [3]): > 256 µg/mL
MIC (E. coli ATCC 25922; [4]): > 256 µg/mL
MIC (E. coli ATCC 25922; [5]): > 256 µg/mL
MIC (P. aeruginosa PAO1; [6]): > 256 µg/mL
MIC (P. aeruginosa PAO1; [7]): > 256 µg/mL
MIC (S. aureus ATCC 25923; [8]): 32 µg/mL (≈ 102 µM)
MIC (S. aureus ATCC 25923; [9]): 32 µg/mL (≈ 102 µM)
IC50 [1]: 100 µM
Inhibition of Bc FtsZ At 100 μM [1]: Yes
Inhibits B. cenocepacia FtsZ GTPase at 100µM? [1]: Yes
melting point: 181 to 183 °C

CC(C)Oc1cc(SC#N)c2nsnc2c1[N+](=O)[O-] [compound 11126010]
MIC (B. cenocepacia J2315; [2]): > 128 µg/mL
MIC (B. cenocepacia J2315; [3]): > 128 µg/mL
MIC (E. coli ATCC 25922; [4]): > 512 µg/mL
MIC (E. coli ATCC 25922; [5]): > 512 µg/mL
MIC (P. aeruginosa PAO1; [6]): > 128 µg/mL
MIC (P. aeruginosa PAO1; [7]): > 128 µg/mL
spectrum of activity, in words (S. aureus ATCC 25923): showed activity only against S. aureus
MIC (S. aureus ATCC 25923; [8]): 4 µg/mL (≈ 13.5 µM)
MIC (S. aureus ATCC 25923; [9]): 4 µg/mL (≈ 13.5 µM)
IC50 [1]: 15 µM
Inhibition of Bc FtsZ At 100 μM [1]: Yes
Inhibits B. cenocepacia FtsZ GTPase at 100µM? [1]: Yes
melting point: 116 to 118 °C

CCOC(=O)C(C)Sc1ccc2nsnc2c1[N+](=O)[O-] (centres unmarked) [compound 11826110]
MIC (B. cenocepacia J2315; [2]): 16 µg/mL (≈ 51.1 µM)
MIC (B. cenocepacia J2315; [3]): 16 µg/mL (≈ 51.1 µM)
activity compared with C109, in words (B. cenocepacia J2315; SAR statements, against both bacteria and the purified enzyme): partially lost activity
MIC (E. coli ATCC 25922; [4]): 32 µg/mL (≈ 102 µM)
MIC (E. coli ATCC 25922; [5]): 32 µg/mL (≈ 102 µM)
MIC (P. aeruginosa PAO1; [6]): > 256 µg/mL
MIC (P. aeruginosa PAO1; [7]): > 256 µg/mL
MIC (S. aureus ATCC 25923; [8]): 32 µg/mL (≈ 102 µM)
MIC (S. aureus ATCC 25923; [9]): 32 µg/mL (≈ 102 µM)
IC50 [1]: > 100 µM
Inhibition of Bc FtsZ At 100 μM [1]: No
Inhibits B. cenocepacia FtsZ GTPase at 100µM? [1]: No
melting point: 153 to 155 °C

O=[N+]([O-])c1c(SC(=S)N2CCSCC2)ccc2nsnc12 [compound 11126015]
MIC (B. cenocepacia J2315; [2]): > 128 µg/mL
MIC (B. cenocepacia J2315; [3]): > 128 µg/mL
MIC (E. coli ATCC 25922; [4]): > 512 µg/mL
MIC (E. coli ATCC 25922; [5]): > 512 µg/mL
MIC (P. aeruginosa PAO1; [6]): > 128 µg/mL
MIC (P. aeruginosa PAO1; [7]): > 128 µg/mL
spectrum of activity, in words (S. aureus ATCC 25923): showed activity only against S. aureus
MIC (S. aureus ATCC 25923; [8]): 32 µg/mL (≈ 89.3 µM)
MIC (S. aureus ATCC 25923; [9]): 32 µg/mL (≈ 89.3 µM)
IC50 [1]: 36 µM
Inhibition of Bc FtsZ At 100 μM [1]: Yes
Inhibits B. cenocepacia FtsZ GTPase at 100µM? [1]: Yes
melting point: 140 to 142 °C

CCCCCSc1ccc2nsnc2c1[N+](=O)[O-] [compound 10726015]
MIC (B. cenocepacia J2315; [2]): > 64 µg/mL
MIC (B. cenocepacia J2315; [3]): > 64 µg/mL
MIC (E. coli ATCC 25922; [4]): > 512 µg/mL
MIC (E. coli ATCC 25922; [5]): > 512 µg/mL
MIC (P. aeruginosa PAO1; [6]): > 128 µg/mL
MIC (P. aeruginosa PAO1; [7]): > 128 µg/mL
MIC (S. aureus ATCC 25923; [8]): 512 µg/mL (≈ 1810 µM)
MIC (S. aureus ATCC 25923; [9]): 512 µg/mL (≈ 1810 µM)
Inhibition of Bc FtsZ At 100 μM [1]: No
Inhibits B. cenocepacia FtsZ GTPase at 100µM? [1]: No
melting point: 116 to 118 °C

COC(=O)C(C)Sc1ccc2nsnc2c1[N+](=O)[O-] (centres unmarked) [compound 11826363]
MIC (B. cenocepacia J2315; [2]): 16 µg/mL (≈ 53.5 µM)
MIC (B. cenocepacia J2315; [3]): 16 µg/mL (≈ 53.5 µM)
MIC (E. coli ATCC 25922; [4]): 16 µg/mL (≈ 53.5 µM)
MIC (E. coli ATCC 25922; [5]): 16 µg/mL (≈ 53.5 µM)
MIC (P. aeruginosa PAO1; [6]): 256 µg/mL (≈ 855 µM)
MIC (P. aeruginosa PAO1; [7]): 256 µg/mL (≈ 855 µM)
MIC (S. aureus ATCC 25923; [8]): 64 µg/mL (≈ 214 µM)
MIC (S. aureus ATCC 25923; [9]): 64 µg/mL (≈ 214 µM)
IC50 [1]: 30 µM
Inhibition of Bc FtsZ At 100 μM [1]: Yes
Inhibits B. cenocepacia FtsZ GTPase at 100µM? [1]: Yes
melting point: 161 to 163 °C
